The numbers were not newly measured in patent US20090215818A1, “THIOZOLIDINEDIONE DERIVATIVES AS PI3 KINASE INHIBITORS” (SmithKline Beecham Corporation, priority 2006, published 2009), which cites them from elsewhere.

Like-named read-outs stand apart in the source and are kept apart here.

One data set relates to Class I PI3-kinases. The conditions noted are these: each of the Class I PI3-kinases.
The target in another data set is CK2 protein kinase (Homo sapiens, UniProt P68400).
Chain of CK2 protein kinase (P68400 whole entry): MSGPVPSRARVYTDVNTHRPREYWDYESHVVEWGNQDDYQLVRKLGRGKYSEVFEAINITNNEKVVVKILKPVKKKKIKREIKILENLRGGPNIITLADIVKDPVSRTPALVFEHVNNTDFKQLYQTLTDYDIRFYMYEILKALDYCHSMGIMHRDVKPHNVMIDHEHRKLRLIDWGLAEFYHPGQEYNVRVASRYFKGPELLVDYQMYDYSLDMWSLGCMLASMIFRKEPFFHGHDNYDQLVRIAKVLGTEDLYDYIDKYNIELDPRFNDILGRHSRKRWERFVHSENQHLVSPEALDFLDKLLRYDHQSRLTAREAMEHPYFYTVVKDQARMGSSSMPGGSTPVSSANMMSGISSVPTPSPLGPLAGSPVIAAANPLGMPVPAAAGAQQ

As for wortmannin, in the data set on Class I PI3-kinases (read-out: IC50 against each of the various Class I PI3-kinases), the IC50 (usually the midpoint of a concentration-inhibition curve) is 0.001 to 0.01 µM.
In the case of `O=c1cc(N2CCOCC2)oc2c(-c3ccccc3)cccc12` [LY294002], the IC50 is 15 to 20 µM with Class I PI3-kinases (Fruman et al. 1998, read-out: IC50 against each of these PI3-kinases) and 5 to 10 µM on CK2 protein kinase.
